Tests used:
[1] = Absorbance and fluorescence emission spectra; format: physicochemical
Method: Absorbance and fluorescence emission spectra were generated using a Tecan Infinite M-1000 PRO multimode microplate reader. Solutions of TLR2L-800 were prepared from a 0.367 mmol/L stock solution in DMSO. Aliquots (2 µL) of TLR2L-800 were spotted on each well of a Tecan NanoQuant plate. The absorbance spectrum of TLR2L-800 (183.5 µmol/L in PBS) was acquired from 230 to 1,000 nm with a wavelength step size of 2 nm. The emission spectrum of TLR2L-800 (0.367 mmol/L in DMSO) was acquired with an excitation wavelength starting from 275 nm and emission wavelengths from 450 to 850 nm with an emission wavelength step size of 2 nm and bandwidth of 5 nm.

[2] = design: method as in LI-COR product sheet; conditions: unconjugated dye in water; ref LI-COR product sheet; cited from earlier work

Stokes shift [1]: 15 nm
Compound: CC1(C)C(=CC=C2CCCC(C=CC3=[N+](CCCCCC(=O)[O-])c4ccc(S(=O)(=O)[O-])cc4C3(C)C)=C2Oc2ccc(S(=O)(=O)[O-])cc2)N(CCCCS(=O)(=O)[O-])c2ccc(S(=O)(=O)[O-])cc21.[Na+].[Na+].[Na+].[Na+] [IRDye800CW]
absorbance maxima [2]: 774 nm | emission maxima [2]: 789 nm

— PMC11536076, “Intraoperative Guidance of Pancreatic Cancer Resection Using a Toll-like Receptor 2–Targeted Fluorescence Molecular Imaging Agent” (Cancer Research Communications, 2024)
